Reference: a melting point compilation (Tetko et al.; mined from patent text by program, amines drawn as free bases though some values may be those of a salt)

melting point	SMILES
107 to 109 °C	Cc1cccc(-c2n[nH]cc2-c2ccc(F)c(-c3ccc4c(c3)CCS4(=O)=O)c2)n1
71 to 72 °C	CC(C)(C)OC(=O)CC[C@H](NC(=O)c1ccc(NCCc2ccccc2)cc1F)C(=O)OC(C)(C)C
250 °C	COc1ccc(CN(C)CCCCc2ccc(NC(=O)c3cccc4c(=O)c5cccc(N)c5[nH]c34)cc2)cc1OC
184 to 185 °C	O=c1cc2c(nn1-c1ccc(Cl)cc1)-c1cc(Br)sc1S(=O)CC2 (centres undefined)
203 to 205 °C	CCCCCCCCCCCCCCCCCCS(=O)(=O)c1cc(C(=O)O)c([N+](=O)[O-])c(C(=O)O)c1
206 to 209 °C	NS(=O)(=O)c1ccccc1S(=O)Cc1ccccc1 (centres undefined)
70 to 71 °C	CN(C)CCCn1c2c(c3ccccc31)CCSCCC2
159 to 160 °C	O=c1[nH][nH]c(C(F)(F)F)c1Cc1ccc(F)cc1
153 to 155 °C	CCCCNS(=O)(=O)CC(O)C(O)C(CC1CCCCC1)NC(=O)c1ccccc1 (centres undefined)
65 to 65.5 °C	CCCCCCCCNC(=O)NCCCCC
112 to 113 °C	Oc1cccc([C@H]2CCCC[C@H]2NCCCc2ccccc2)c1 (racemic)
129 to 131 °C	Cc1cc(C)cc(OC(C)(C)C(=O)O[C@H]2C[C@H](O)C=C3C=C[C@H](C)[C@H](CC[C@@H]4C[C@@H](O)CC(=O)O4)[C@H]32)c1
138 to 139 °C	CC1(C)COC(c2ccc(F)cc2Cl)=N1
263 to 266 °C	O=C1OCCC23C(=CC=CC12)C1=C(C=C3c2ccc3c(c2)OCO3)OCO1 (centres undefined)
172 to 173 °C	O=C(OCCCCCCO)c1ccc(Oc2c3c(c(Oc4ccc(C(=O)OCCCCCCO)cc4)c4ccccc24)C(=O)c2ccccc2C3=O)cc1
114 to 116 °C	CCCN(CCC)CC(=O)OC1CC2(C)C(C#N)CCC2C2CCC3CC(O)CCC3(C)C12 (centres undefined)
162 to 165 °C	CC(C(N)=O)c1ccc2c(c1)CCc1cccnc1O2 (centres undefined)
104 to 107 °C	CCCn1c(CO)nc(C(C)C)c1Sc1cc(Cl)cc(Cl)c1
210 to 211 °C	Cc1ccc(-c2ccc3c(c2)C=C(C(=O)Nc2ccc(CN4CCCCC4)cc2)CC(c2ccccc2)O3)cc1 (centres undefined)
88 °C	CC1=CC(=NO)CC(c2cccc(Cl)c2)N1 (centres undefined)
103 to 104 °C	CCS(=O)(=O)C(F)(F)c1nnc(OCC(=O)N(C)c2ccccc2)s1

melting point	SMILES
188 to 189 °C	O=[N+]([O-])c1ccc(Cl)c(C=Cc2nc3ccccc3s2)c1
141 to 143 °C	CCCCCCCCCCCCSc1nnn(C(C(=O)Nc2c(OC)cc(OC)cc2OC)c2ccccc2)n1 (centres undefined)
162 to 165 °C	COc1cc2c(cc1OC)[C@@H]1CCCC[C@@H]1N=C2c1ccc([N+](=O)[O-])c([N+](=O)[O-])c1
91 to 93 °C	CNc1nnc(C(C)(C)CCl)s1
160 to 161 °C	NS(=O)(=O)c1ccc(-c2cccn2-c2ccc(F)cc2)cc1
123 to 127 °C	CCc1c(-c2ccc(OCc3ccccc3)cc2)c2ccc3c(N)ccc1n32
118 to 119 °C	COC(=O)Cc1cn(C)nc1O
200 to 202 °C	CN1CCN(c2cc3c(Br)cccc3c(=O)[nH]2)CC1CO (centres undefined)
148 to 150 °C	O=[N+]([O-])c1cc(C(O)CCN2CCC(c3ccccc3)CC2)ccc1C1CCCCC1 (centres undefined)
274 to 275 °C	O=S(=O)(O)c1cccc(Cl)n1
51 to 53 °C	CCCc1c(O)ccc2c1OC(C(=O)OC)CC2 (centres undefined)
128 to 136 °C	c1ccc(C2=Nc3ccccc3-n3ccc4cccc2c43)cc1
223 °C	CC(=O)NCc1cn(-c2ccc(-n3cncn3)c(F)c2)nn1
78 °C	O=C(CC(=S)S)c1ccc(Oc2ccccc2)cc1
172 to 173 °C	O=C(NCCCN1CCN(c2ncccn2)CC1)NC12CC3CC(CC(C3)C1)C2
122 to 124 °C	O=C(O)CCCCc1cn(-c2cccnc2)c2ccccc12
210 °C	O=C(COc1ccc(-c2cc3ccc(OCC(=O)c4ccc(Cl)cc4)cc3s2)cc1)c1ccc(Cl)cc1
28 °C	CCC(C)(C)c1nc(C(C)C)[nH]c1C(C)(C)CC
139 to 141 °C	CCC(C)C(NC(=O)OC)C(=O)NN(Cc1ccc(-c2cncs2)cc1)CC(O)C(Cc1ccccc1)NC(=O)C(NC(=O)OC)C(C)(C)C (centres undefined)
132 to 135 °C	Cc1ccc(C(=O)C(=O)c2ccc(Br)cc2)cc1
136 to 138 °C	COC(=O)c1sc(Cl)c(Cl)c1NC(C)=O

melting point	SMILES
104 to 106 °C	NS(=O)(=O)c1ccc(C=O)cc1
161 °C	CC(C)N(C(=O)c1cc2ccccc2c(-c2ccccc2Cl)n1)C(C)C
225 to 228 °C	NCc1ccc(S(=O)(=O)c2ccc(S(N)(=O)=O)s2)cc1
120 to 122 °C	NC(=O)C(CCC(=O)O)N1C(=O)c2cccc(NCc3ccco3)c2C1=O (centres undefined)
192 to 195 °C	COc1cc2c(c3c1OC(C)(C)C3)C(c1ccc(N)cc1)=NC(C)(C)C2
170 to 171 °C	COc1ccsc1CN=C(NC#N)Oc1ccccc1
141 to 145 °C	CCOC(=O)C1CNc2cc(-c3ccccc3)ccc2O1 (centres undefined)
140 °C	Fc1cccc(C(c2ccnc3ccccc23)n2ccnc2)c1 (centres undefined)
210 to 211 °C	C=CCNc1nc(Cl)nc(N(CCCCCCN(c2nc(Cl)nc(NCC=C)n2)C2CC(C)(C)NC(C)(C)C2)C2CC(C)(C)NC(C)(C)C2)n1
145 to 146 °C	CCOc1cccc(CC(=O)O)c1OCCn1cc(C(=O)NCc2ccc(Cl)cc2Cl)c(OCC)n1
38 °C	CC1(C)Oc2ccccc2-n2cccc21
212 °C	CCCC1=Cc2c3c(c(C)c(C)c2C1=O)OC(C(=O)O)C3 (centres undefined)
65 to 67 °C	CC(NC(=O)N(Cc1csc(C(C)C)n1)C1CC1)C(=O)NC(Cc1ccccc1)CC(O)C(Cc1ccccc1)NC(=O)OCc1cncs1 (centres undefined)
210 to 212 °C	Cc1c(C(=O)Nc2ccc(N3CCC(N4CCOCC4)CC3)cc2C#N)cnn1-c1ccc(C(F)(F)F)cc1
217 to 218 °C	COc1ccc(C2C3=C(COC3=O)Nc3ccc4cn[nH]c4c32)cc1[N+](=O)[O-] (centres undefined)
235 to 237 °C	COc1cc2nc(N3CCN(C(=O)C=Cc4ccccn4)CC3)nc(N)c2cc1OC
129 to 130 °C	CS(=O)(=O)c1ccc(Oc2ccc(O)cc2)cc1
57 to 60 °C	CCCCCCCCC1CNc2cc(C(=O)OC)ccc21 (racemic)
146 to 148 °C	Cc1c[nH]c2c(CCC#N)cccc12
97 to 98 °C	Cc1cc(Cl)ccc1Cn1nc(OC(C)C)cc1CCCOc1ncccc1CC(=O)O

SMILES	melting point
Fc1cccc2c1OC(CN1CC=C(c3c[nH]c4ccccc34)CC1)CO2 (centres undefined)	174 to 177 °C
N#Cc1nn(-c2c(Cl)cc(C(F)(F)F)cc2Cl)cc1OC(F)(F)C(F)Cl (racemic)	99 to 101 °C
O=C1[C@@H]2[C@H](O)CCN2C(=O)N1c1ccc(Br)c2ccccc12 (relative stereo)	204 to 206 °C
CCCN(CCC)Cc1nnc(-c2ncn3c2CN(C)C(=O)c2c(Cl)cccc2-3)o1	188 to 195 °C
OCC[C@H]1CN(Cc2ccccc2)CCN1	78.9 to 80.4 °C
O=[N+]([O-])C(Sc1ccc(Cl)cc1)=C1NCCN1Cc1ccc(Cl)nc1	159 to 161 °C
Cc1c(C(N)=O)nnn1Cc1ccccc1Cl	181 to 183 °C
